Laboratory results published in ChEMBL document CHEMBL1201862, “PubChem BioAssay data set” (2004).
Activity calls are given as the source filed them.

Experiments:
[1] = viability loss in HEK293T cells – cell-based, cherry-picks, cytotoxicity control for HIV Vif inhibitor project, dose response (AID 652208); format: functional
[2] = potency of ADAM10 substrate cleavage blockers – biochemical, QFRET, dose response (AID 743254);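 note: ADAM10 enzyme with the DM2 quenched FRET peptide as substrate; EDANS fluorescence gain as the protease cuts the substrate; inhibitor potency against ADAM10 proteolytic activity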
[3] = biological target: T1, High affinity choline transporter 1 (Homo sapiens, UniProt Q9GZV3); assay: human choline transporter blockers, potency – cell-based, 5-point CRC, membrane potential dye, dose response (AID 504840); format: functional
T1 sequence (Q9GZV3 whole entry): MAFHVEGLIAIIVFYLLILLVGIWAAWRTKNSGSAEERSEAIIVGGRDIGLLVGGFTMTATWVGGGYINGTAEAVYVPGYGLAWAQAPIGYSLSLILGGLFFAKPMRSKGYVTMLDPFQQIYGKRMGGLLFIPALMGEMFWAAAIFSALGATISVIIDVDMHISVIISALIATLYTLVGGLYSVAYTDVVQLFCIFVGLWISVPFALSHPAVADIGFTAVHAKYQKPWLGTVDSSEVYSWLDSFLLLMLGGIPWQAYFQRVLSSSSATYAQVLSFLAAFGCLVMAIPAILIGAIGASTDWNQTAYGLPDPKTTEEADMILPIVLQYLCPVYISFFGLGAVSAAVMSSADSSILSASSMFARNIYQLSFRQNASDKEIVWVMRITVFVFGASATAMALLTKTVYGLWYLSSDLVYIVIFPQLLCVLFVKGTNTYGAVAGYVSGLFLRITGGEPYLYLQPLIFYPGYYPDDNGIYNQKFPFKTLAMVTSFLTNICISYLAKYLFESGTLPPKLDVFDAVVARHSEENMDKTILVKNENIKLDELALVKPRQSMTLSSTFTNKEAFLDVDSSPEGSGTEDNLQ

[4] = biological target: T1, High affinity choline transporter 1; assay: human choline transporter blockers, potency – cell-based, 10-point CRC, membrane potential dye, dose response (AID 588401); format: functional;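 note: membrane potential dye fluorescence of choline-evoked depolarization via CHT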
[5] = general mammalian cell viability loss – inhibitor set, cherry-pick, set 2, cytotoxicity control for miR-122 modulator project, dose response (AID 720697); format: functional, cell-based
[6] = Luminescence Cell-Based Dose Response HTS to Identify Inhibitors of 5'UTR Stem-Loop Driven Prion Protein mRNA Translation in H4 Neuroglioblastoma Cells. [Related pubchem assays: 1827 (Project Summary), 1813 (Primary HTS)]; format: functional
[7] = alpha-synuclein stem-loop luciferase translation blockers – H4 neuroglioma cells, luminescence, confirmation (AID 1988); format: functional, cell-based
HEK293 = assay: EBV LMP1 TES2 canonical NF-kB signalling blockers – cell-based, HEK293, luciferase, cherry-pick, dose response (AID 588343); format: functional; settings: Homo sapiens
[8] = A549 cell cytotoxicity, dose response, cytotoxicity control, plate reader, cherry-pick, antagonist series (AID 743412); format: functional, cell-based
[9] = toxicity toward HepG2 liver cells – cell-based, plate reader, cherry-pick, antagonist series, cytotoxicity control, dose response (AID 743416); format: functional
[10] = blockers of bursicon-stimulated LGR2 cAMP reporter – cell-based, HEK293, CRE-luciferase reporter, cherry pick, set 2, dose response (AID 743343); format: functional;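 note: transfected cells were stimulated with diluted bursicon conditioned medium after compound addition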
[11] = blockade of melanocortin 4 receptor signaling – cell-based, plate reader, cherry pick, counter-screen for LGR2 antagonist project, dose response (AID 743444); format: functional;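 note: transfected HEK 293 cells stimulated with alpha-MSH peptide; potency of inhibitors of the alpha-MSH evoked signal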
[12] = cytotoxicity in MITF-independent A375 cells – cell-based, CellTiter-Glo luminescence, dry powder, set 4, counter-screen for MITF inhibitor project, dose response (AID 624364); format: functional; settings: A-375;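 note: A375 melanoma cells are MITF independent so this is a counter screen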
[13] = T. cruzi growth inhibition in host cells, dose response, cell-based, plate reader, dry powder, set 2 (AID 652275); format: functional
Cryptococcus neoformans = assay: PubChem AID 686997; format: functional, organism-based
BJ [14] = assay: BJ-TERT fibroblast viability loss – cell-based, RAS-independent, luminescence, dose response (AID 1933); format: functional; settings: Homo sapiens
BJ [15] = assay: cells; format: functional, cell-based; settings: Homo sapiens
BJ [16] = assay: BJ-TERT-LT-ST fibroblast viability loss – cell-based, RAS-independent, luminescence, dose response (AID 1935); format: functional; settings: Homo sapiens;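 note: BJ fibroblasts immortalized with TERT plus LT and ST oncogenes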
[17] = DRD fibroblast viability loss – cell-based, non-viral oncogenic, luminescence, dose response (AID 1934); format: functional; settings: Homo sapiens
BJ [18] = assay: growth inhibition of engineered Ras-driven BJ cells – cell-based, alamar blue fluorescence, cherrypicked samples, dose response (AID 2631); format: functional; settings: Homo sapiens;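 note: confirmatory dose-response assay in RAS-dependent BJ fibroblasts engineered with TERT, LT and ST, with cytotoxicity read by fluorescence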
[19] = biological target: Fructose-bisphosphate aldolase (Mycobacterium tuberculosis, UniProt P9WQA3); assay: Fluorescence-based biochemical high throughput dose response assay for inhibitors of the fructose-bisphosphate aldolase (FBA) of M. tuberculosis.; format: functional
Sequence of Fructose-bisphosphate aldolase (P9WQA3 whole entry): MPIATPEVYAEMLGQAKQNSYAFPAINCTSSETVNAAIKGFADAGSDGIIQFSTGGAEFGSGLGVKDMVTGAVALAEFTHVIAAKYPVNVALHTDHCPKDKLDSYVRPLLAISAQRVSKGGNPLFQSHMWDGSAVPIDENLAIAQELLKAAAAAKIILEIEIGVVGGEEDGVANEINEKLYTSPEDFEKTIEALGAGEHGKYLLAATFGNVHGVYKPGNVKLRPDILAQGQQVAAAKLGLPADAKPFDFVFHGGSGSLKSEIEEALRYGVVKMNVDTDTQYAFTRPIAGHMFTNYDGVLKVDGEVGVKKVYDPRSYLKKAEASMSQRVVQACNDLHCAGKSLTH

Structure (SMILES): CCc1ccc2[nH]c3nc(SCC(=O)NNC(=O)c4ccc(C(C)(C)C)cc4)nnc3c2c1
- AC50 [1]: 28.6 µM (active)

Structure (SMILES): CC(C)C[C@H](NC(=O)c1[nH]cnc1C(=O)Nc1ccc(CNC(=O)OC(C)(C)C)cc1)C(=O)OC(C)(C)C
- IC50 [2]: > 69.5 µM (inactive)

Structure (SMILES): COc1ccc(-c2cc(=O)c3cc(O)ccc3o2)cc1
- IC50 [3]: 4.38 µM (active)
- IC50 [4]: 3.64 µM (active)

Structure (SMILES): CC(=O)Nc1ccc(-c2cc(-c3ccc(NC(C)=O)cc3)nc(-c3ccc(NC(C)=O)cc3)n2)cc1
- AC50 [5]: 8.27 µM (active)

Structure (SMILES): O=C(NCCc1ccccc1)c1ccc2nccnc2c1
- EC50 [6]: 9.34 µM (active)
- EC50 [7]: 9.37 µM (active)
- AC50 (HEK293): 3.05 µM (active)
- AC50 [8]: 22.1 µM (active)
- AC50 [9]: 20.3 µM (active)
- AC50 [10]: 5 µM (active)
- AC50 [11]: 4.77 µM (active)

Structure (SMILES): CCC(=O)N1[C@H](CO)[C@@H](c2ccccc2)[C@@H]1CN(C(C)C)S(C)(=O)=O
- AC50 [5]: 0.51 µM (active)

Structure (SMILES): C=CCNC1=C(NS(=O)(=O)c2cccs2)C(=O)c2ccccc2C1=O
- AC50 [12]: > 70 µM (inactive)

Structure (SMILES): C[C@H]1CN([C@@H](C)CO)C(=O)c2cccc(NC(=O)c3ccncc3)c2O[C@@H]1CN(C)Cc1cc(Cl)cc(Cl)c1
- AC50 [13]: 0.0105 µM (active)

Structure (SMILES): COC(=O)C1=C(C)N(Cc2ccc(F)cc2)C(=S)NC1c1cccc(Cl)c1 (stereo not given)
- AC50 (Cryptococcus neoformans): 49.5 µM (active)
- AC50 (Cryptococcus neoformans; Cryptococcus neoformans): > 70 µM (inactive)

Structure (SMILES): Cc1ccc(NS(=O)(=O)c2cccc(C(=O)NCC(c3ccco3)N3CCCCC3)c2)cc1 (stereo not given)
- IC50 [3]: 9.8 µM (active)
- IC50 [4]: 5.39 µM (active)

Structure (SMILES): O=C(/C=C\c1ccco1)Nc1cc([N+](=O)[O-])ccc1F
- EC50 (BJ [14]): 1.44 µM (active)
- EC50 (BJ [15]): 2.06 µM (active)
- EC50 (BJ [16]): 0.821 µM (active)
- EC50 [17]: 1.17 µM (active)
- EC50 (BJ [18]): 0.42 µM (active)

Structure (SMILES): COc1ccc2nc3c(O)n4c(nc-3c2c1)SCC4
- IC50 [19]: 1.4 µM (active)
